Results: ChEMBL document CHEMBL5247574, “Recent Progress on Bile Acid Receptor Modulators for Treatment of Metabolic Diseases” (J Med Chem, 2016)
≈ marks a conversion by molar mass, not a printed value. Each block holds one molecule with its values, some of them ahead of it.

Assays:
[1] = biological target: T1, G-protein coupled bile acid receptor 1 (Rattus norvegicus) (UniProt Q80T02); assay: Agonist activity at TGR5 in rat Primary intestinal cell assessed as stimulation of GLP-1 secretion at 30 uM relative to control; format: cell-based; conditions: filed as agonist
T1 sequence (whole entry): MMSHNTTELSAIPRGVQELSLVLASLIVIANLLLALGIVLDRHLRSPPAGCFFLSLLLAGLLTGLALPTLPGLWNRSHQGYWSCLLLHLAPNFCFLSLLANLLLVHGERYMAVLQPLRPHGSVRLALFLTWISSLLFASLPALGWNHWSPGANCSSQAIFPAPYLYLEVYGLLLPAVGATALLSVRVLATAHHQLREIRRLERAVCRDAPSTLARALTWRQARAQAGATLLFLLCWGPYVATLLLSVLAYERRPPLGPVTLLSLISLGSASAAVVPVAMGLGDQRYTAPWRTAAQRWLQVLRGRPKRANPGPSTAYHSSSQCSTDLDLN

[2] = biological target: T2, G-protein coupled bile acid receptor 1 (Homo sapiens, UniProt Q8TDU6); assay: Agonist activity at TGR5 in human HEK293 cells assessed as increase in cAMP production; format: cell-based
T2 sequence (Q8TDU6 whole entry): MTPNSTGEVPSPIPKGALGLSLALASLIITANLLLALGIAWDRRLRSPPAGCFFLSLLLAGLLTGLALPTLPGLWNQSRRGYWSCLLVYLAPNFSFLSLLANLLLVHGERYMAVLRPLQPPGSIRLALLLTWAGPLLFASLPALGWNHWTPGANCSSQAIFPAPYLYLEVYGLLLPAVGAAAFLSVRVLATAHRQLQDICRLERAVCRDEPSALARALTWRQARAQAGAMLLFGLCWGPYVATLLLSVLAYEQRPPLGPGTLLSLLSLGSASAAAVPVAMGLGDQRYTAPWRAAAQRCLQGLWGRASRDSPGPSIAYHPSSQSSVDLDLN

Bile acid receptor [3] = biological target: T3, Bile acid receptor (Homo sapiens, UniProt Q96RI1); assay: Antagonist activity at FXR in human HepG2 cells incubated for 24 hrs by dual luciferase reporter assay; format: cell-based
T3 sequence (Q96RI1 whole entry): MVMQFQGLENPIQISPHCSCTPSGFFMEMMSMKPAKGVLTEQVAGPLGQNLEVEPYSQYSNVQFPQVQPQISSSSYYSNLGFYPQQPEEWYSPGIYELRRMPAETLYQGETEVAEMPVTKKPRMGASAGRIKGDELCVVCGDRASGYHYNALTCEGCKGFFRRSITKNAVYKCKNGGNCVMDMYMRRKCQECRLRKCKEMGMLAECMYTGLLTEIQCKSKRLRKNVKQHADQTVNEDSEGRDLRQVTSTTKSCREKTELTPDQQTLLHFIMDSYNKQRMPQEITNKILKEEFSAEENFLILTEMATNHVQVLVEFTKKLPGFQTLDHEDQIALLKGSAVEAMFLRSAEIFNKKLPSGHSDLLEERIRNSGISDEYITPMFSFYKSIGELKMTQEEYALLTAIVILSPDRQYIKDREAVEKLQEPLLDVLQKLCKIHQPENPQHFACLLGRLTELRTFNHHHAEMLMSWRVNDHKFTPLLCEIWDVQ

[4] = Binding affinity to FXR alpha LBD (unknown origin); parameters: species or system Homo sapiens
[5] = Aqueous solubility of compound; format: physicochemical; conditions: buffer
[6] = Clearance in mouse liver microsomes; format: ADME, Microsome; conditions: liver microsomes, read-out: CLH
[7] = biological target: T4, G-protein coupled bile acid receptor 1 (Mus musculus, UniProt Q80SS6); assay: Agonist activity at mouse TGR5
T4 sequence (Q80SS6 whole entry): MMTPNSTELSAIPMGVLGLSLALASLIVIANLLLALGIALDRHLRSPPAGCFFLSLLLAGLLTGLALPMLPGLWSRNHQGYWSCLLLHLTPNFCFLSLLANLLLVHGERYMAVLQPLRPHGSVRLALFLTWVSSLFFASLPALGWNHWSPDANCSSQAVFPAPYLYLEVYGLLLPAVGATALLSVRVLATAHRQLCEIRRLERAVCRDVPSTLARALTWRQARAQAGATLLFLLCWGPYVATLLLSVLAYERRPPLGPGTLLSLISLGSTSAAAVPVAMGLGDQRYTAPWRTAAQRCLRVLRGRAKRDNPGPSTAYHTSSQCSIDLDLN

[8] = biological target: T2, G-protein coupled bile acid receptor 1; assay: Agonist activity at human TGR5; conditions: read-out: EC50
[9] = Clearance in human liver microsomes; format: ADME, Microsome; conditions: liver microsomes, read-out: CLH
Bile acid receptor [10] = biological target: T3, Bile acid receptor; assay: Agonist activity at human GST-tagged FXR LBD (193 to 472 residues) by FRET assay
Bile acid receptor [11] = biological target: T3, Bile acid receptor; assay: Antagonist activity at FXR in human HepG2 cells in presence of CDCA by luciferase reporter assay; format: cell-based
[12] = biological target: T5, G-protein coupled bile acid receptor 1 (Homo sapiens) (UniProt Q8TDU6); assay: Agonist activity at human TGR5 transfected in CHO cells assessed as increase in cAMP production at 1 uM relative to control; format: cell-based; conditions: filed as agonist
T5 sequence (whole entry): T2 sequence (Q8TDU6 whole entry)

Bile acid receptor [13] = biological target: T3, Bile acid receptor; assay: Agonist activity at FXR (unknown origin)
Bile acid receptor [14] = biological target: T3, Bile acid receptor; assay: Antagonist activity at FXR (unknown origin) by HTFR assay
[15] = biological target: T5, G-protein coupled bile acid receptor 1 (Homo sapiens); assay: Agonist activity at human TGR5 transfected in CHO cells assessed as increase in cAMP production at 100 nM relative to control; format: cell-based; conditions: filed as agonist
[16] = biological target: T2, G-protein coupled bile acid receptor 1; assay: Agonist activity at human TGR5 transfected in CHO cells assessed as increase in cAMP production; format: cell-based
[17] = biological target: T2, G-protein coupled bile acid receptor 1; assay: Agonist activity at human TGR5 transfected in CHO-K1 cells assessed as increase in cAMP production; format: cell-based

SMILES: CN1CC(C)(C)N(C(=O)COc2cccc3cnccc23)c2ccc(F)cc21
Activity [1]: 251%

SMILES: CN(C)c1cc(Cl)c(C(=O)N(Cc2ccccc2)c2ccc(O)c(C(C)(C)C)c2)c(Cl)c1
IC50 (Bile acid receptor [3]): 4500 nM
Kd [4]: 8300 nM

SMILES: O=C(Nc1nnn[nH]1)c1cc(Cl)c(Oc2ncccc2C(=O)N2CCN(C3CC3)c3ccccc32)cc1Cl
solubility [5]: 535 µg/mL (≈ 970 µM)
microsomal CLint [6]: 56 µL/min/mg
EC50 [7]: 350 nM
EC50 [8]: 76 nM
microsomal CLint [9]: 56 µL/min/mg

SMILES: O=C(O)c1ccc2nc(N3CCC(OCc4c([C@H]5CCCC[C@@H]5C(F)(F)F)noc4C4CC4)CC3)sc2c1 (stereo in doubt; form 2)
EC50 (Bile acid receptor [10]): 245 nM

SMILES: CC[C@@H](CC[C@@H](C)[C@H]1CCC2=C3CC[C@H]4C(C)=CCC[C@]4(C)C3CC[C@@]21C)C(C)C (stereo partly drawn)
IC50 (Bile acid receptor [11]): 35000 nM

SMILES: CO[C@H](c1ccccc1)c1nc2cc(F)c(F)cc2n1C(C(=O)Nc1ccc(C(=O)O)cc1C)C1CCCCC1 (stereo partly drawn)
IC50 (Bile acid receptor [13]): 20 nM

SMILES: CC(C)c1onc(-c2c(Cl)cccc2Cl)c1COc1ccn(-c2cccc(C(=O)O)c2)n1
EC50 (Bile acid receptor [14]): 80000 nM

SMILES: COc1ccc(C(C)(C)c2cnc(SCCOc3c(F)cccc3Cl)n2-c2ccc(F)cc2)cc1OC
Activity [15]: 97%

SMILES: Cc1cc(/C(C[C@H](c2ccc(C3C[C@@H]4C(C(=O)O)[C@@H]4C3)cc2)c2ccc(F)cc2F)=N\O)ccn1 (stereo partly drawn)
EC50 [16]: 1 nM

SMILES: Cc1ccccc1[C@H](C/C(=N/O)c1ccc(=O)n(C)n1)c1ccc(Br)cc1
EC50 [16]: 6 nM

SMILES: Cc1c(Cl)cccc1OCCCC(=O)N1CCC(Cc2cccc(C(=O)NCCS(=O)(=O)O)c2)c2ccccc21 (stereo not drawn)
EC50 [17]: 24 nM

SMILES: Cc1c(Cl)cccc1OCCCC(=O)N1CCCc2c(-c3cnn(Cc4c(F)cc(C(=O)NCCS(=O)(=O)O)cc4Cl)c3)cccc21
EC50 [17]: 23 nM

SMILES: O=C(O)c1ccc2cc(N3C4CCC3CC(OCc3c(-c5ccccc5OC(F)(F)F)noc3C3CC3)C4)ccc2c1 (stereo not drawn)
EC50 (Bile acid receptor [10]): 1 nM

SMILES: Fc1cccc(F)c1-c1ccncc1CN1C(c2ccco2)=NOC1c1ccccc1 (stereo not drawn)
EC50 [2]: < 100 nM

SMILES: O=C(c1cccnc1Oc1cc(Cl)ccc1Cl)N1CCN(C2COC2)c2ccccc21
solubility [5]: 14 µg/mL (≈ 30.7 µM)

Second part, the molecule after the results:

EC50 [2]: < 10000 nM
SMILES: CC(C)n1ncc2cc(CNCc3ccc(C(F)(F)F)cc3)c(-c3ccsc3)cc21

EC50 [2]: < 10000 nM
SMILES: O=c1c2cccnc2nc(-c2cncc(Cl)c2)n1NCc1ccc(Cl)cc1F

EC50 [2]: < 0.5 nM
SMILES: Cc1ccc(-c2csc3nnc(SCc4c(F)cccc4Cl)n23)cc1

EC50 [2]: < 10000 nM
SMILES: O=C(c1cc(C(F)(F)F)cc(C(F)(F)F)c1)N1CCCn2cccc2C1c1ccccc1 (stereo not drawn)

Activity [12]: 100%
SMILES: O=C(c1cc(C(F)(F)F)cc(C(F)(F)F)c1)N1CCOc2nccc(-c3ccccc3)c2C1

EC50 [2]: < 10000 nM
SMILES: Brc1ccc(CCNCc2cc3ccncc3nc2-c2ccsc2)cc1

Activity [15]: 147%
SMILES: COc1ccc(C(C)(C)c2nnc(SCCOc3ccc(-n4cnc(-c5ccsc5)c4)cc3)n2-c2ccc(F)cc2)cc1OC

EC50 [7]: 2020 nM
SMILES: O=C(c1cccnc1Oc1cccc(C(F)(F)F)c1)N1CCCc2ccccc21
